Test results: publication PMC5845353, “The selective cathepsin K inhibitor MIV-711 attenuates joint pathology in experimental animal models of osteoarthritis” (Journal of Translational Medicine, 2018)

Tested on: rabbits subjected to anterior cruciate ligament transection (ACLT)
Experiment: Rabbit ACLT study, histomorphometry of bone, cartilage and osteophytes
Type: in vivo
Description: The femora and tibias were decalcified, embedded in paraffin, sectioned at 5-7 µm at two different levels separated by approximately 2 mm, and stained with safranin O and toluidine blue.
Both tibial plateaus and femoral condyles (i.e. four joint compartments) were also subjected to histomorphometric analysis of cartilage, subchondral bone, cancellous bone, and osteophytes. The measurements were made using OsteoMeasureXP version 3.3.0.2 as follows:
Uncalcified cartilage area was measured by tracing the articular surface (cartilage perimeter) and bone or calcified cartilage/uncalcified cartilage interface (cartilage boundary).
Cartilage width was measured by point to point measurement at intersections between a sampling grid with approximately 0.5 mm spacing and the cartilage boundary. The intercepts measured were orthogonal to the cartilage boundary and ended at the cartilage perimeter. At intersections where the cartilage width was zero due to erosion, a value of zero was recorded.
Subchondral bone width was measured by point to point measurement at intersections between a sampling grid with approximately 0.5 mm spacing and the cartilage boundary. The intercepts measured were orthogonal to the cartilage boundary and ended at the first marrow cavity encountered that had at least one dimension approximately equivalent to nearby trabecular thickness.
Osteophyte area was measured for abaxial osteophytes. On the femur, osteophytes associated with the condyles but not with the trochlear grooves were measured.
Bone area (including osteoid) and perimeter were measured in a 3.8 X 1.5 mm ROI centered approximately 1 mm below the bone/cartilage interface. This ROI was intended to be equivalent to the subchondral cancellous bone VOI measured by microCT. Bone volume (BV/TV), trabecular thickness (Tb.Th), trabecular number (Tb.N) and trabecular separation (Tb.Sp) were derived from these measurements using standard formulae.
Slides were evaluated in animal ID order, i.e. in random order with respect to treatment, so that the measurer was effectively blinded to treatment assignment.
Analysis was performed on all four condyles at two levels (Level 1 and 2) for each condyle:
Group 1) sham + vehicle; Group 2) ACLT + vehicle; Group 3) ACLT + MIV-711, 30 µmol/kg (low dose) and Group 4) ACLT + MIV-711, 100 µmol/kg (high dose).

[1] = Level 2, MFC, Group 3: ACLT + MIV-711, 30 µmol/kg (low dose)
[2] = Level 2, MFC, Group 4: ACLT + MIV-711, 100 µmol/kg (high dose)
[3] = Level 2, MTP, Group 3: ACLT + MIV-711, 30 µmol/kg (low dose)
[4] = Level 2, MTP, Group 4: ACLT + MIV-711, 100 µmol/kg (high dose)

Structure (SMILES): C#C[C@@H]1CN(C(=O)[C@H](CC(C)C)NC(=O)c2ccc(-c3nc(N4CCN(C)CC4)sc3F)cc2)[C@@H]2C(=O)CO[C@H]12 [MIV-711]
- Tb.Th, Median (Level 1 MFC, Group 4, ACLT + MIV-711 100 µmol/kg): 161.50 µm
- BV/TV, Mean (Level 2, LFC, Group 3): 36.23%
- BV/TV, Median (Level 2, LFC, Group 3): 35.15%
- Cart.Ar, Mean (Level 2, LFC, Group 3): 1.54 mm2
- Cart.Ar, Median (Level 2, LFC, Group 3): 1.50 mm2
- Cart.Bd, Mean (Level 2, LFC, Group 3): 5.95 mm
- Cart.Bd, Median (Level 2, LFC, Group 3): 5.45 mm
- Cart.Pm, Mean (Level 2, LFC, Group 3): 6.68 mm
- Cart.Pm, Median (Level 2, LFC, Group 3): 6.07 mm
- Cart.Wi, Mean (Level 2, LFC, Group 3): 252.24 µm
- Cart.Wi, Median (Level 2, LFC, Group 3): 265.00 µm
- Ophte.Ar, Mean (Level 2, LFC, Group 3): 1.80 mm2
- Ophte.Ar, Median (Level 2, LFC, Group 3): 1.91 mm2
- SCB.Wi, Mean (Level 2, LFC, Group 3): 625.26 µm
- SCB.Wi, Median (Level 2, LFC, Group 3): 686.73 µm
- Tb.N, Mean (Level 2, LFC, Group 3): 2.86 1/mm
- Tb.N, Median (Level 2, LFC, Group 3): 3.01 1/mm
- Tb.Sp, Mean (Level 2, LFC, Group 3): 227.32 µm
- Tb.Sp, Median (Level 2, LFC, Group 3): 224.93 µm
- Tb.Th, Mean (Level 2, LFC, Group 3): 129.54 µm
- Tb.Th, Median (Level 2, LFC, Group 3): 124.26 µm
- BV/TV, Mean (Level 2, LFC, Group 4): 36.75%
- BV/TV, Median (Level 2, LFC, Group 4): 38.04%
- Cart.Ar, Mean (Level 2, LFC, Group 4): 1.69 mm2
- Cart.Ar, Median (Level 2, LFC, Group 4): 1.76 mm2
- Cart.Bd, Mean (Level 2, LFC, Group 4): 7.36 mm
- Cart.Bd, Median (Level 2, LFC, Group 4): 7.45 mm
- Cart.Pm, Mean (Level 2, LFC, Group 4): 8.13 mm
- Cart.Pm, Median (Level 2, LFC, Group 4): 8.16 mm
- Cart.Wi, Mean (Level 2, LFC, Group 4): 223.79 µm
- Cart.Wi, Median (Level 2, LFC, Group 4): 238.09 µm
- Ophte.Ar, Mean (Level 2, LFC, Group 4): 4.60 mm2
- Ophte.Ar, Median (Level 2, LFC, Group 4): 1.57 mm2
- SCB.Wi, Mean (Level 2, LFC, Group 4): 500.70 µm
- SCB.Wi, Median (Level 2, LFC, Group 4): 462.81 µm
- Tb.N, Mean (Level 2, LFC, Group 4): 3.05 1/mm
- Tb.N, Median (Level 2, LFC, Group 4): 2.97 1/mm
- Tb.Sp, Mean (Level 2, LFC, Group 4): 212.50 µm
- Tb.Sp, Median (Level 2, LFC, Group 4): 210.44 µm
- Tb.Th, Mean (Level 2, LFC, Group 4): 120.73 µm
- Tb.Th, Median (Level 2, LFC, Group 4): 120.14 µm
- BV/TV, Mean (Level 2, LTP, Group 3): 42.02%
- BV/TV, Median (Level 2, LTP, Group 3): 40.17%
- Cart.Ar, Mean (Level 2, LTP, Group 3): 0.88 mm2
- Cart.Ar, Median (Level 2, LTP, Group 3): 0.95 mm2
- Cart.Bd, Mean (Level 2, LTP, Group 3): 4.27 mm
- Cart.Bd, Median (Level 2, LTP, Group 3): 4.41 mm
- Cart.Pm, Mean (Level 2, LTP, Group 3): 4.26 mm
- Cart.Pm, Median (Level 2, LTP, Group 3): 4.48 mm
- Cart.Wi, Mean (Level 2, LTP, Group 3): 207.98 µm
- Cart.Wi, Median (Level 2, LTP, Group 3): 203.75 µm
- Ophte.Ar, Mean (Level 2, LTP, Group 3): 1.40 mm2
- Ophte.Ar, Median (Level 2, LTP, Group 3): 1.23 mm2
- SCB.Wi, Mean (Level 2, LTP, Group 3): 531.17 µm
- SCB.Wi, Median (Level 2, LTP, Group 3): 547.82 µm
- Tb.N, Mean (Level 2, LTP, Group 3): 2.93 1/mm
- Tb.N, Median (Level 2, LTP, Group 3): 3.04 1/mm
- Tb.Sp, Mean (Level 2, LTP, Group 3): 202.17 µm
- Tb.Sp, Median (Level 2, LTP, Group 3): 206.70 µm
- Tb.Th, Mean (Level 2, LTP, Group 3): 146.36 µm
- Tb.Th, Median (Level 2, LTP, Group 3): 148.82 µm
- BV/TV, Mean (Level 2, LTP, Group 4): 39.84%
- BV/TV, Median (Level 2, LTP, Group 4): 38.48%
- Cart.Ar, Mean (Level 2, LTP, Group 4): 1.20 mm2
- Cart.Ar, Median (Level 2, LTP, Group 4): 1.00 mm2
- Cart.Bd, Mean (Level 2, LTP, Group 4): 4.73 mm
- Cart.Bd, Median (Level 2, LTP, Group 4): 4.37 mm
- Cart.Pm, Mean (Level 2, LTP, Group 4): 5.10 mm
- Cart.Pm, Median (Level 2, LTP, Group 4): 4.58 mm
- Cart.Wi, Mean (Level 2, LTP, Group 4): 263.50 µm
- Cart.Wi, Median (Level 2, LTP, Group 4): 255.71 µm
- Ophte.Ar, Mean (Level 2, LTP, Group 4): 1.37 mm2
- Ophte.Ar, Median (Level 2, LTP, Group 4): 1.37 mm2
- SCB.Wi, Mean (Level 2, LTP, Group 4): 559.05 µm
- SCB.Wi, Median (Level 2, LTP, Group 4): 594.94 µm
- Tb.N, Mean (Level 2, LTP, Group 4): 2.47 1/mm
- Tb.N, Median (Level 2, LTP, Group 4): 2.50 1/mm
- Tb.Sp, Mean (Level 2, LTP, Group 4): 250.77 µm
- Tb.Sp, Median (Level 2, LTP, Group 4): 246.02 µm
- Tb.Th, Mean (Level 2, LTP, Group 4): 161.80 µm
- Tb.Th, Median (Level 2, LTP, Group 4): 153.89 µm
- BV/TV, Mean (Level 2, MFC, Group 3): 50.84%
- BV/TV, Median (Level 2, MFC, Group 3): 46.53%
- Cart.Ar, Mean [1]: 1.47 mm2
- Cart.Ar, Median [1]: 1.46 mm2
- Cart.Bd, Mean [1]: 6.28 mm
- Cart.Bd, Median [1]: 6.09 mm
- Cart.Pm, Mean [1]: 6.91 mm
- Cart.Pm, Median [1]: 6.73 mm
- Cart.Wi, Mean [1]: 223.23 µm
- Cart.Wi, Median [1]: 234.59 µm
- Ophte.Ar, Mean [1]: 2.89 mm2
- Ophte.Ar, Median [1]: 3.00 mm2
- SCB.Wi, Mean [1]: 694.43 µm
- SCB.Wi, Median [1]: 608.27 µm
- Tb.N, Mean [1]: 2.80 1/mm
- Tb.N, Median [1]: 2.86 1/mm
- Tb.Sp, Mean [1]: 174.68 µm
- Tb.Sp, Median [1]: 185.17 µm
- Tb.Th, Mean [1]: 189.67 µm
- Tb.Th, Median [1]: 161.11 µm
- BV/TV, Mean (Level 2, MFC, Group 4): 43.61%
- BV/TV, Median (Level 2, MFC, Group 4): 41.52%
- Cart.Ar, Mean [2]: 1.41 mm2
- Cart.Ar, Median [2]: 1.41 mm2
- Cart.Bd, Mean [2]: 6.12 mm
- Cart.Bd, Median [2]: 6.18 mm
- Cart.Pm, Mean [2]: 6.67 mm
- Cart.Pm, Median [2]: 6.55 mm
- Cart.Wi, Mean [2]: 222.96 µm
- Cart.Wi, Median [2]: 218.64 µm
- Ophte.Ar, Mean [2]: 2.78 mm2
- Ophte.Ar, Median [2]: 2.43 mm2
- SCB.Wi, Mean [2]: 570.45 µm
- SCB.Wi, Median [2]: 510.39 µm
- Tb.N, Mean [2]: 3.01 1/mm
- Tb.N, Median [2]: 3.07 1/mm
- Tb.Sp, Mean [2]: 189.22 µm
- Tb.Sp, Median [2]: 197.91 µm
- Tb.Th, Mean [2]: 144.65 µm
- Tb.Th, Median [2]: 140.49 µm
- BV/TV, Mean [3]: 39.18%
- BV/TV, Median [3]: 39.13%
- Cart.Ar, Mean [3]: 0.74 mm2
- Cart.Ar, Median [3]: 0.67 mm2
- Cart.Bd, Mean [3]: 2.32 mm
- Cart.Bd, Median [3]: 2.31 mm
- Cart.Pm, Mean [3]: 2.43 mm
- Cart.Pm, Median [3]: 2.27 mm
- Cart.Wi, Mean [3]: 312.01 µm
- Cart.Wi, Median [3]: 270.73 µm
- Ophte.Ar, Mean [3]: 5.73 mm2
- Ophte.Ar, Median [3]: 3.43 mm2
- SCB.Wi, Mean [3]: 747.49 µm
- SCB.Wi, Median [3]: 739.43 µm
- Tb.N, Mean [3]: 2.37 1/mm
- Tb.N, Median [3]: 2.27 1/mm
- Tb.Sp, Mean [3]: 257.90 µm
- Tb.Sp, Median [3]: 251.22 µm
- Tb.Th, Mean [3]: 166.79 µm
- Tb.Th, Median [3]: 176.63 µm
- BV/TV, Mean [4]: 33.87%
- BV/TV, Median [4]: 33.99%
- Cart.Ar, Mean [4]: 1.78 mm2
- Cart.Ar, Median [4]: 0.71 mm2
- Cart.Bd, Mean [4]: 2.50 mm
- Cart.Bd, Median [4]: 2.18 mm
- Cart.Pm, Mean [4]: 2.70 mm
- Cart.Pm, Median [4]: 2.14 mm
- Cart.Wi, Mean [4]: 282.89 µm
- Cart.Wi, Median [4]: 257.34 µm
- Ophte.Ar, Mean [4]: 10.32 mm2
- Ophte.Ar, Median [4]: 6.59 mm2
- SCB.Wi, Mean [4]: 575.52 µm
- SCB.Wi, Median [4]: 691.04 µm
- Tb.N, Mean [4]: 2.15 1/mm
- Tb.N, Median [4]: 1.97 1/mm
- Tb.Sp, Mean [4]: 317.92 µm
- Tb.Sp, Median [4]: 313.76 µm
- Tb.Th, Mean [4]: 160.02 µm
- Tb.Th, Median [4]: 151.52 µm
